The values below are quoted from earlier work in PMC4457351 (Journal of Visualized Experiments : JoVE, 2014).

For the series the following is noted: read-out: Kd(calcium).

pKd: −log10 of the molar value.

Fluo-4: the pKd was roughly 6.46.
